Data from US8357717B2, “Spiro group-containing amide compounds having bradykinin 1 receptor (B1R) activity” (Gruenenthal GmbH, priority 2009, dated 2013).

Legend:
[1] = molecular target: T1, human B1R receptor (hB1R) (Homo sapiens, UniProt P46663); assay: FLIPR Ca2+ functional study on bradykinin receptor 1, hB1R cells (CHO K1); format: cell-based; settings: CHO-K1, 10 μM test substance; CHO K1 cells with human B1R; agonist Lys-Des-Arg9-bradykinin at EC80; read-out: B1R antagonism, human [10 μM] % inhibition
T1 construct: expressed in transfected cells; host or cells: CHO K1 cells, stably transfected
T1 sequence (P46663 1-353): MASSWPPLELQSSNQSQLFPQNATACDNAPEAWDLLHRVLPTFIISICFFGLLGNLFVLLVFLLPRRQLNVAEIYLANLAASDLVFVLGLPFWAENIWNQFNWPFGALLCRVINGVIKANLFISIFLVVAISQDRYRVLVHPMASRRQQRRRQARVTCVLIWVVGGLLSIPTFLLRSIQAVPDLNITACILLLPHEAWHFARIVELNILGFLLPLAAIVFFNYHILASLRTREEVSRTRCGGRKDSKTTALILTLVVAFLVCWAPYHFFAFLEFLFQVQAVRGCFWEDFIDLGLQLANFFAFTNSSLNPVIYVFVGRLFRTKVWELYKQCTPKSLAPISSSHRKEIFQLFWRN
Description: (§1) The agonistic or antagonistic activity of substances can be quantified on the bradykinin receptor 1 (B1R) of the species human and rat using ectopically expressing cell lines (CHO K1 cells) and with the aid of a Ca^2+-sensitive dye (Fluo-4) using a fluorescent imaging plate reader (FLIPR). The indication in % activation is based on the Ca^2+ signal after addition of Lys-Des-Arg^9-bradykinin (0.5 nM) or Des-Arg^9-bradykinin (100 nM). Antagonists lead to suppression of the Ca^2+ influx after the addition of the agonist. % Inhibition compared with the maximum achievable inhibition is indicated.
(§2) The agonistic or antagonistic activity of substances can be determined on the bradykinin receptor 1 (B1R) of the species human and rat using the following assay. According to this assay, the Ca^2+ influx through the channel is quantified with the aid of a Ca^2+-sensitive dye (Fluo-4 type, Molecular Probes Europe BV, Leiden, Netherlands) using a Fluorescent Imaging Plate Reader (FLIPR, Molecular Devices, Sunnyvale, USA).
(§3) Chinese hamster ovary cells (CHO K1 cells) which have been stably transfected with the human B1R gene (hB1R cells) or with the B1R gene of the rat (rB1R cells) are used. For functional studies, the cells are plated out on black 96-well plates having a clear base (BD Biosciences, Heidelberg, Germany or Greiner, Frickenhausen, Germany) in a density of 20,000-35,000 cells/well. The cells are left overnight at 37° C. and with 5% CO2 in culture medium (hB1R cells: Nutrient Mixture Ham's F12, Gibco Invitrogen GmbH, Karlsruhe, Germany or DMEM, Sigma-Aldrich, Taufkirchen, Germany; rB1R cells: D-MEM/F12, Gibco Invitrogen GmbH, Karlsruhe, Germany), with 10 vol. % FBS (fetal bovine serum, Gibco Invitrogen GmbH, Karlsruhe, Germany or PAN Biotech GmbH, Aidenbach, Germany). On the following day, the cells are loaded for 60 minutes at 37° C. with 2.13 μM Fluo-4 (Molecular Probes Europe BV, Leiden, Netherlands) in HBSS buffer (Hank's buffered saline solution, Gibco Invitrogen GmbH, Karlsruhe, Germany) […] (Sigma-Aldrich, Taufkirchen, Germany) and 10 mM HEPES (Sigma-Aldrich, Taufkirchen, Germany). The plates are then washed twice with HBSS buffer, and HBSS buffer additionally containing 0.1% BSA (bovine serum albumin; Sigma-Aldrich, Taufkirchen, Germany), 5.6 mM glucose and 0.05% gelatin (Merck KGaA, Darmstadt, Germany) is added to the plates. After incubation for a further 20 minutes at room temperature, the plates are inserted into the FLIPR for Ca^2+ measurement. Alternatively, washing is carried out with buffer A (15 mM HEPES, 80 mM NaCl, 5 mM KCl, 1.2 mM CaCl2, 0.7 mM MgSO4, 2 g/l glucose, 2.5 mM probenecid) followed by loading with buffer A with added 2.5 μM Fluo-4 and 0.025% Pluronic F127 (Sigma-Aldrich, Taufkirchen, Germany). The cells are then washed twice with buffer A and incubated for 30 minutes at room temperature with buffer A additionally containing 0.05% BSA and 0.05% gelatin and are then inserted into the FLIPR for Ca^2+ measurement. The Ca^2+-dependent fluorescence is measured before and after the addition of substances (λex=488 nm, λem=540 nm). Quantification is carried out by measuring the highest fluorescence intensity (FC, fluorescence counts) over time.
(§4) The FLIPR protocol consists of two substance additions. Test substances (10 μM) are first pipetted onto the cells and the Ca^2+ influx is compared with the control (hB1R: Lys-Des-Arg^9-bradykinin >=50 nM; rB1R: Des-Arg^9-bradykinin 10 μM). This gives the activation in %, based on the Ca^2+ signal after addition of Lys-Des-Arg^9-bradykinin (>=50 nM) or Des-Arg^9-bradykinin (10 μM). After 10-20 minutes' incubation, Lys-Des-Arg^9-bradykinin (hB1R) or Des-Arg^9-bradykinin (rB1R) is applied in the concentration of the EC80, and the influx of Ca^2+ is likewise determined. Antagonists lead to suppression of the Ca^2+ influx. The % inhibition compared with the maximum achievable inhibition is calculated. […]

[2] = molecular target: T2, B1R receptor of the rat (rB1R) (Rattus norvegicus, UniProt P97583); assay: FLIPR Ca2+ functional study on bradykinin receptor 1, rB1R cells (CHO K1); format: cell-based; settings: 10 μM test substance; CHO K1 cells with rat B1R; agonist Des-Arg9-bradykinin at EC80; read-out: B1R antagonism, rat [10 μM] % inhibition
T2 construct: expressed in transfected cells; host or cells: CHO K1 cells, stably transfected
T2 sequence (P97583 1-337): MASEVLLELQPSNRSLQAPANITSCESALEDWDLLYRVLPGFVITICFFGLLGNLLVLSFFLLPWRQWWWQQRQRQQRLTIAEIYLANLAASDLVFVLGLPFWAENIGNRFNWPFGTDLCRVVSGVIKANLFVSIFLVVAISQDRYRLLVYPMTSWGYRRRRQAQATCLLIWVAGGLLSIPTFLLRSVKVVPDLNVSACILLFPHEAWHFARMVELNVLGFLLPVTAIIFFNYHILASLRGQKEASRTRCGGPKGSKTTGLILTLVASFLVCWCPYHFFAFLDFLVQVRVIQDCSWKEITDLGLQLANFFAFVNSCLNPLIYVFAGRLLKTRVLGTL
Description: as §1, §2, §3, §4

| Compound | inhibition at 10 µM [1] [%] | inhibition at 10 µM [2] [%] |
| --- | --- | --- |
| O=C(c1cccc2c1CN(S(=O)(=O)c1cccc(Cl)c1Cl)CC2)N1CCC2(CC1)CCN(c1ccncc1)CC2 [Compound G-38, (2-(2,3-Dichlorophenylsulfonyl)-1,2,3,4-tetrahydroisoquinolin-8-yl)(9-(pyridin-4-yl)-3,9-diazaspiro[5.5]undecan-3-yl)methanone] | 97 | 91 |
| COc1cc(C)c(S(=O)(=O)N2CCc3cccc(C(=O)N4CCC5(CC4)CCN(c4ccncc4)CC5)c3C2)c(C)c1 [Compound G-36, (2-(4-Methoxy-2,6-dimethylphenylsulfonyl)-1,2,3,4-tetrahydroisoquinolin-8-yl)(9-(pyridin-4-yl)-3,9-diazaspiro[5.5]undecan-3-yl)methanone] | 99 | 99 |
| COc1cc(C)c(S(=O)(=O)N2CCCc3ccc(C(=O)N4CCC5(CC4)CCN(c4ccncc4)CC5)cc32)c(C)c1 [Compound G-24, (1-(4-Methoxy-2,6-dimethylphenylsulfonyl)-1,2,3,4-tetrahydroquinolin-7-yl)(9-(pyridin-4-yl)-3,9-diazaspiro[5.5]undecan-3-yl)methanone] | 99 | 100 |
| O=C(c1ccc2c(c1)N(C(=O)c1ccccc1Cl)CCC2)N1CCC2(CC1)CCN(c1ccncc1)CC2 [Compound G-21, (1-(2-Chlorobenzoyl)-1,2,3,4-tetrahydroquinolin-7-yl)(9-(pyridin-4-yl)-3,9-diazaspiro[5.5]undecan-3-yl)methanone] | 95 | 101 |
| Cc1ccc(S(=O)(=O)N2CCc3ccc(C(=O)N4CCC5(CC4)CCN(c4ccncc4)CC5)cc3C2)c2ccccc12 [Compound G-47, (2-(4-Methylnaphthalin-1-ylsulfonyl)-1,2,3,4-tetrahydroisoquinolin-7-yl)(9-(pyridin-4-yl)-3,9-diazaspiro[5.5]undecan-3-yl)methanone] | 72 | 80 |
| O=C(Cc1ccccc1Cl)N1CCc2ccc(C(=O)N3CCC4(CC3)CCN(c3ccncc3)CC4)cc2C1 [Compound G-43, 2-(2-Chlorophenyl)-1-(7-(9-(pyridin-4-yl)-3,9-diazaspiro[5.5]undecane-3-carbonyl)-3,4-dihydroisoquinolin-2(1H)-yl)ethanone] | 99 | 102 |
| COc1cc(C)c(S(=O)(=O)N2CCOc3ccc(CC(=O)N4CCC5(CC4)CCN(c4ccncc4)CC5)cc32)c(C)c1 [Compound G-19, 2-(4-(4-Methoxy-2,6-dimethylphenylsulfonyl)-3,4-dihydro-2H-benzo[b][1,4]oxazin-6-yl)-1-(9-(pyridin-4-yl)-3,9-diazaspiro[5.5]undecan-3-yl)ethanone] | 100 | 100 |
| O=C(c1ccc(Cl)s1)N1CCc2cccc(C(=O)N3CCC4(CC3)CCN(c3ccncc3)CC4)c2C1 [Compound G-44, (5-Chlorothiophen-2-yl)(8-(9-(pyridin-4-yl)-3,9-diazaspiro[5.5]undecane-3-carbonyl)-3,4-dihydroisoquinolin-2(1H)-yl)methanone] | 99 | 62 |

Further lines, results first:

| inhibition at 10 µM [1] [%] | inhibition at 10 µM [2] [%] | Compound |
| --- | --- | --- |
| 69 | 91 | O=C(c1ccc2c(c1)CN(S(=O)(=O)c1ccc(Cl)c3ccccc13)CC2)N1CCC2(CC1)CCN(c1ccncc1)CC2 [Compound G-50, (2-(4-Chloronaphthalin-1-ylsulfonyl)-1,2,3,4-tetrahydroisoquinolin-7-yl)(9-(pyridin-4-yl)-3,9-diazaspiro[5.5]undecan-3-yl)methanone] |
| 98 | 106 | O=C(Cc1ccc2c(c1)N(S(=O)(=O)c1cccc3ccccc13)CCC2)N1CCC2(CCN(c3ccncc3)CC2)C1 [Compound G-52, 2-(1-(Naphthalin-1-ylsulfonyl)-1,2,3,4-tetrahydroquinolin-7-yl)-1-(8-(pyridin-4-yl)-2,8-diazaspiro[4.5]decan-2-yl)ethanone] |
| 98 | 100 | Cc1ccc(Cl)c(S(=O)(=O)N2CCCc3ccc(CC(=O)N4CCC5(CC4)CCN(c4ccncc4)CC5)cc32)c1Cl [Compound G-66, 2-[1-[(2,6-Dichloro-3-methyl-phenyl)sulfonyl]-1,2,3,4-tetrahydro-quinolin-7-yl]-1-(9-pyridin-4-yl-3,9-diazaspiro[5.5]undecan-3-yl)-ethanone] |
| 95 | 105 | O=C(Cc1ccc2c(c1)N(S(=O)(=O)c1cccc3ccccc13)CCC2)N1CCC2(CCN(c3ccncc3)C2)C1 (stereo not drawn) [Compound G-53, 2-(1-(Naphthalin-1-ylsulfonyl)-1,2,3,4-tetrahydroquinolin-7-yl)-1-(7-(pyridin-4-yl)-2,7-diazaspiro[4.4]nonan-2-yl)ethanone] |
| 44 | 78 | O=C(c1ccc2c(c1)CN(S(=O)(=O)c1cccc3c(Cl)cccc13)CC2)N1CCC2(CC1)CCN(c1ccncc1)CC2 [Compound G-62, (2-(5-Chloronaphthalin-1-ylsulfonyl)-1,2,3,4-tetrahydroisoquinolin-7-yl)(9-(pyridin-4-yl)-3,9-diazaspiro[5.5]undecan-3-yl)methanone] |
| 99 | 70 | O=C(c1ccc2c(c1)CN(C(=O)c1ccc(Cl)s1)C2)N1CCC2(CC1)CCN(c1ccncc1)CC2 [Compound G-69, [2-(5-Chloro-thiophene-2-carbonyl)-2,3-dihydro-1H-isoindol-5-yl]-(9-pyridin-4-yl-3,9-diazaspiro[5.5]undecan-3-yl)-methanone] |
| 73 | 95 | COc1ccc(S(=O)(=O)N2CCc3ccc(C(=O)N4CCC5(CC4)CCN(c4ccncc4)CC5)cc3C2)c2ccccc12 [Compound G-48, (2-(4-Methoxynaphthalin-1-ylsulfonyl)-1,2,3,4-tetrahydroisoquinolin-7-yl)(9-(pyridin-4-yl)-3,9-diazaspiro[5.5]undecan-3-yl)methanone] |
